Legend:
[1] = biological target: Aldo-keto reductase family 1 member B1 (Rattus norvegicus, UniProt P07943); type: tissue-based, Lens of camera-type eye;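 note: inhibition of aldose reductase enzyme activity, measured with DL-glyceraldehyde as the substrate; in other assays of this panel Not Active means under 50% inhibition at 10 µM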
[2] = biological target: T1, Adenosine receptor A1 (Homo sapiens, UniProt P30542); type: cell membranes, CHO, Membrane; conditions: cho;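 note: radioligand binding assay at the adenosine A1 receptor, with DPCPX serving as the labelled ligand; in other assays of this panel Not Active means under 50% inhibition at 10 µM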
T1 sequence (P30542 whole entry): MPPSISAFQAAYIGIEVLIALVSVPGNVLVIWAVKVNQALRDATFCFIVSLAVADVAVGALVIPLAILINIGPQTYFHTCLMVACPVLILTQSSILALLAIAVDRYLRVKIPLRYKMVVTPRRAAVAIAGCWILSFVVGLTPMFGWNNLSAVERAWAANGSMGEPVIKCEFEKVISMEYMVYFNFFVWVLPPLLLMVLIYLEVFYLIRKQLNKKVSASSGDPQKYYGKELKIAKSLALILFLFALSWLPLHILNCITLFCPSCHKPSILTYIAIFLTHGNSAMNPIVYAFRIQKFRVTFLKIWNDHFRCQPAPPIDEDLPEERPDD

[3] = DRUGMATRIX: Glutamate, NMDA, Agonism radioligand binding (ligand: [3H] CGP-39653); type: cell membranes, Rattus norvegicus, Wistar, Cerebral cortex, Membrane; conditions: Not Active = under 50% inhibition at 10 µM
[4] = biological target: T2, Neuropeptide Y receptor type 2 (Homo sapiens, UniProt P49146); type: cell membranes, Membrane; conditions: kan-ts; note: in other assays of this panel Not Active means under 50% inhibition at 10 µM
T2 sequence (P49146 whole entry): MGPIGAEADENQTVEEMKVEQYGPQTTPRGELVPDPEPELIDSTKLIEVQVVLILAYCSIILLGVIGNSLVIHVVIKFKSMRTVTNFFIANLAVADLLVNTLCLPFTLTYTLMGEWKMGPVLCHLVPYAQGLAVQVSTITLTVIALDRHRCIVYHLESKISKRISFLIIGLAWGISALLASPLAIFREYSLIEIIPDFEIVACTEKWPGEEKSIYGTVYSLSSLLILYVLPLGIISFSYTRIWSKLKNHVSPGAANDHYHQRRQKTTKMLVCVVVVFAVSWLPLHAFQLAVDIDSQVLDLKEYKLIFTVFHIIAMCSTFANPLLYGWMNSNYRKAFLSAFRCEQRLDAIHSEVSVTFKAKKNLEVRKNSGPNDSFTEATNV

[5] = biological target: D(3) dopamine receptor (Homo sapiens, UniProt P35462); assay: DRUGMATRIX: Dopamine D3 radioligand binding (ligand: [3H] Spiperone); type: cell membranes, CHO, Membrane; conditions: cho
[6] = DRUGMATRIX: Phosphodiesterase PDE3 enzyme inhibition (substrate: [3H]cAMP + cAMP); type: tissue-based, Homo sapiens; conditions: platelet; Not Active = under 50% inhibition at 10 µM
[7] = DRUGMATRIX: GABAA, Chloride Channel, TBOB radioligand binding (ligand: [3H] TBOB); type: cell membranes, Rattus norvegicus, Wistar, Cerebral cortex, Membrane; conditions: Not Active = under 50% inhibition at 10 µM
[8] = biological target: T3, C-X-C chemokine receptor type 2 (Homo sapiens, UniProt P25025); type: cell membranes, Membrane; conditions: cho-k1; note: in other assays of this panel Not Active means under 50% inhibition at 10 µM
T3 sequence (P25025 whole entry): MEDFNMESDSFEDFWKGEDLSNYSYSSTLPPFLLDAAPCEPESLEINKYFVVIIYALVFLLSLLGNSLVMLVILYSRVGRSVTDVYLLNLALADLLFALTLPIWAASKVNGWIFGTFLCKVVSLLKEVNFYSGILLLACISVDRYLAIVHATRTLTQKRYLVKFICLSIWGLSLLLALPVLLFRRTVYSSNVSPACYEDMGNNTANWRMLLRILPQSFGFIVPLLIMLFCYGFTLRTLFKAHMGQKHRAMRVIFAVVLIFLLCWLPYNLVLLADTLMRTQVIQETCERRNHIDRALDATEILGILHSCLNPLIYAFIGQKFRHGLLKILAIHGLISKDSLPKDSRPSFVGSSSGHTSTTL

[9] = biological target: Histamine H2 receptor (Homo sapiens, UniProt P25021); type: cell membranes, CHO-K1, Membrane; conditions: cho-k1; note: in other assays of this panel Not Active means under 50% inhibition at 10 µM
[10] = biological target: Substance-P receptor (Homo sapiens, UniProt P25103); type: cell membranes, CHO, Membrane; conditions: cho; note: in other assays of this panel Not Active means under 50% inhibition at 10 µM
[11] = DRUGMATRIX: Imidazoline I2, Central radioligand binding (ligand: [3H] Idazoxan); type: cell membranes, Rattus norvegicus, Wistar, Cerebral cortex, Membrane; conditions: Not Active = under 50% inhibition at 10 µM
[12] = biological target: Melanocortin receptor 4 (Homo sapiens, UniProt P32245); type: cell membranes, Membrane; conditions: hek293; note: in other assays of this panel Not Active means under 50% inhibition at 10 µM
[13] = DRUGMATRIX: Platelet-Derived Growth Factor (PDGF) radioligand binding (ligand: [125I] PDGF); type: cell-based; conditions: nih3t3; Not Active = under 50% inhibition at 10 µM
[14] = DRUGMATRIX: Glutamate, NMDA, Phencyclidine radioligand binding (ligand: [3H] TCP); type: cell membranes, Rattus norvegicus, Wistar, Cerebral cortex, Membrane; conditions: Not Active = under 50% inhibition at 10 µM
[15] = biological target: 5-hydroxytryptamine receptor 1B (Rattus norvegicus, UniProt P28564); type: cell membranes, Wistar, Cerebral cortex, Membrane; note: in other assays of this panel Not Active means under 50% inhibition at 10 µM
Chain of 5-hydroxytryptamine receptor 1B (P28564 whole entry): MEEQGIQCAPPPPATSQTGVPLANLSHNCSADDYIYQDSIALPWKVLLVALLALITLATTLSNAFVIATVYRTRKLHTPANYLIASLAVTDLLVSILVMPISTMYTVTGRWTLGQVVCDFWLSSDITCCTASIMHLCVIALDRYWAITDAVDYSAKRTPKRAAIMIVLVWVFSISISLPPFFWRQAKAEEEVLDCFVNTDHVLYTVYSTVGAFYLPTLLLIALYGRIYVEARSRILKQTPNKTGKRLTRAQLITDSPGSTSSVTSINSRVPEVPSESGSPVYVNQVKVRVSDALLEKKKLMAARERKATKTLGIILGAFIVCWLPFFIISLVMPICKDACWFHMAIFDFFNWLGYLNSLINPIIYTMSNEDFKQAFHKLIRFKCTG

Chain of Histamine H2 receptor (P25021 whole entry): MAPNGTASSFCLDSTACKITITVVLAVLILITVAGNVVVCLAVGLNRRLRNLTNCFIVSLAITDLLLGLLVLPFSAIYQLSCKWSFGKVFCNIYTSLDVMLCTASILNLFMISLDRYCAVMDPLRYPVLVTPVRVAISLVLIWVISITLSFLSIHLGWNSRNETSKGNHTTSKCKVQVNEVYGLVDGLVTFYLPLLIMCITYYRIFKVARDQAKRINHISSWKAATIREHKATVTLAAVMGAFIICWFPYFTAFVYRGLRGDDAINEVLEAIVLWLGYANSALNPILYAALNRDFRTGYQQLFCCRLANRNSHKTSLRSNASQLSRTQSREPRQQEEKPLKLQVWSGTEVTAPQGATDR
Chain of Substance-P receptor (P25103 whole entry): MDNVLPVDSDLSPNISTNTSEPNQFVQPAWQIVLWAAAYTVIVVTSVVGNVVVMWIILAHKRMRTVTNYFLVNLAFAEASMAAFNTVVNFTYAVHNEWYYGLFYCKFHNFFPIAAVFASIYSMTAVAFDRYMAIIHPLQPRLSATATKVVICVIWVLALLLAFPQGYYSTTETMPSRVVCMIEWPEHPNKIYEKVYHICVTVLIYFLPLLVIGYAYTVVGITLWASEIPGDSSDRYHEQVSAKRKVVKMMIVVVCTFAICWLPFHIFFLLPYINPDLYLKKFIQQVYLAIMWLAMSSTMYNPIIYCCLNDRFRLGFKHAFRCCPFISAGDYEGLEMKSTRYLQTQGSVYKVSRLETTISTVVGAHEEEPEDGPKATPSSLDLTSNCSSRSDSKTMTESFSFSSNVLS
Chain of Melanocortin receptor 4 (P32245 whole entry): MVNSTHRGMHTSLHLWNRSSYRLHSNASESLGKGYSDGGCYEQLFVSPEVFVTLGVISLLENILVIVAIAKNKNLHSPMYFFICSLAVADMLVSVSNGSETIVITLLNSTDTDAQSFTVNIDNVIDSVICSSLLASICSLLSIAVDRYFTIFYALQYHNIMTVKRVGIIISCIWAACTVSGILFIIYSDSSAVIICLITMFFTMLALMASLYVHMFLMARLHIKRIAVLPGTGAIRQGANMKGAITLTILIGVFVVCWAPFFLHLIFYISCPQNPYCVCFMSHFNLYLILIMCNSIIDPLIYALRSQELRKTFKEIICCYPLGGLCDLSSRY
Chain of D(3) dopamine receptor (P35462 whole entry): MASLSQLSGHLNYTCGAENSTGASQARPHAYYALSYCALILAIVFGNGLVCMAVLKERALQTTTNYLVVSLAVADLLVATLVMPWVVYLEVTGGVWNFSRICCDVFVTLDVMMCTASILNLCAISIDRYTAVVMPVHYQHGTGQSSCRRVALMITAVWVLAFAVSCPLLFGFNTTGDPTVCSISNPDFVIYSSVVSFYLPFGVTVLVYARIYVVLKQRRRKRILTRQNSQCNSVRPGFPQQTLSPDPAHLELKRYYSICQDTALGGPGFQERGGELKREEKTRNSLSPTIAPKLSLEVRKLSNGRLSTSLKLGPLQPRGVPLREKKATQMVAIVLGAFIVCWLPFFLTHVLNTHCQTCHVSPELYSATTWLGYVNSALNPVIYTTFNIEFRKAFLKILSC

CC1COc2c(N3CCN(C)CC3)c(F)cc3c(=O)c(C(=O)O)cn1c23 (stereo not given) [OFLOXACIN]
Not Active: IC50 [1] | IC50 [2] | IC50 [3] | Ki [3] | IC50 [4] | IC50 [5] | IC50 [6] | Ki [6] | IC50 [7] | Ki [7] | IC50 [8] | IC50 [9] | IC50 [10] | IC50 [11] | Ki [11] | IC50 [12] | IC50 [13] | Ki [13] | IC50 [14] | Ki [14] | IC50 [15]

COc1ccc([C@@H]2Sc3ccccc3N(CCN(C)C)C(=O)[C@@H]2OC(C)=O)cc1 [DILTIAZEM]
Not Active: IC50 [1] | IC50 [2] | IC50 [3] | Ki [3] | IC50 [4] | IC50 [5] | IC50 [6] | Ki [6] | IC50 [7] | Ki [7] | IC50 [8] | IC50 [9] | IC50 [10] | IC50 [11] | Ki [11] | IC50 [12] | IC50 [13] | Ki [13] | IC50 [14] | Ki [14] | IC50 [15]

CC(C)NC[C@H](O)COc1cccc2[nH]ccc12
Not Active: IC50 [1] | IC50 [2] | IC50 [3] | Ki [3] | IC50 [4] | IC50 [5] | IC50 [6] | Ki [6] | IC50 [7] | Ki [7] | IC50 [8] | IC50 [9] | IC50 [10] | IC50 [11] | Ki [11] | IC50 [12] | IC50 [13] | Ki [13] | IC50 [14] | Ki [14] | IC50 [15]

CCCSc1ccc2nc(NC(=O)OC)[nH]c2c1 [ALBENDAZOLE]
Not Active: IC50 [1] | IC50 [2] | IC50 [3] | Ki [3] | IC50 [4] | IC50 [5] | IC50 [6] | Ki [6] | IC50 [7] | Ki [7] | IC50 [8] | IC50 [9] | IC50 [10] | IC50 [11] | Ki [11] | IC50 [12] | IC50 [13] | Ki [13] | IC50 [14] | Ki [14] | IC50 [15]

O=P1(NCCCl)OCCCN1CCCl (stereo not given) [IFOSFAMIDE]
Not Active: IC50 [1] | IC50 [2] | IC50 [3] | Ki [3] | IC50 [4] | IC50 [5] | IC50 [6] | Ki [6] | IC50 [7] | Ki [7] | IC50 [8] | IC50 [9] | IC50 [10] | IC50 [11] | Ki [11] | IC50 [12] | IC50 [13] | Ki [13] | IC50 [14] | Ki [14] | IC50 [15]

From ChEMBL document CHEMBL1909046, “DrugMatrix in vitro pharmacology data”
